{"source": "patent US20190133997A1", "about": "“ARTEMISININ ANALOG, AND USE, METHOD, AND COMPOSITION FOR PROMOTING LIPID CATABOLISM AND IMPROVING SUGAR METABOLISM” (FUDAN UNIVERSITY, priority 2016, published 2019)", "key": {"SVF primary preadipocyte": {"tested_on": "SVF primary preadipocyte", "test": "Artemether on differentiation of Stromal Vascular Fraction (SVF) primary preadipocytes (morphology, Western blot)", "type": "cell-based, mice", "procedure": "Inguinal fat of male mice was cut into pieces, treated with collagenase at 37° C. for 15 min, and centrifuged at 250 rpm for 10 min. The pellet was resuspended in F12/DMEM medium. 2.5×10^5 cells were taken and seeded in a 3.5 cm culture dish, which was pretreated with 1 ml polylysine for 30 min. Two days after cell contact inhibition (defined as Day 0 of differentiation), induction was performed according to adipocyte differentiation protocol as follows: two days after induction with F12/DMEM comprising 10% fetal bovine serum, 0.5 mMol/L Mix, 1 μMol/L Dex, 5 μg/ml insulin, and 1 μMol/L rosiglitazone; the culture was continued for 2 days with DMEM/F12 comprising 10% fetal bovine serum, […] insulin and 1 μMol/L rosiglitazone; thereafter, DMEM/F12 medium containing 10% fetal bovine serum was replaced every other day until the cells differentiated to Day 8.\nOn Day 0 of differentiation, SVF was treated with different concentrations of artemether ([…]), then fresh medium was replaced, and the corresponding concentration of artemether was added until the cells differentiated to mature.\nThe method for extracting total SVF protein was the same as 2.4.3, Western blot method and catalog number of antibody was the same as 2.4.4."}, "high fat-fed mice [1]": {"tested_on": "high fat-fed mice", "test": "Subcutaneous artemether, adipose tissue in high fat-fed mice", "type": "in vivo, Male C57BL/6J mice", "conditions": "high-fat diet, subcutaneous injection, eight weeks", "procedure": "The mice were breeded in the SPF animal laboratory of the Laboratory Animal Center of Fudan University at a room temperature of 21° C.-23° C. with a 12-hour light/dark cycle. […] When the mice were grown to 8-week old, they were randomly divided into a control group and an administration group, with 8 mice in each group. While the mice were fed with a high-fat diet, artemether was injected subcutaneously. Artemether was diluted in PBS at a concentration of […], and injected into bilateral inguinal region, with 200 μl being injected into each side. Mice in control group were injected with the same volume of PBS. Administration was continued for eight weeks. The mice were sacrificed by cervical dislocation and were dissected, and inguinal fat (Inguinal, subcutaneous fat), epididymal fat (Gonadal, visceral fat) and brown fat in the interscapular region (BAT, classic brown fat) were removed, weighed and fixed. The histological analysis of adipose tissue was commissioned by Shanghai Saige Biotech Co., Ltd. The histological analysis process included the steps of fixing, paraffin embedding, sectioning and HE staining."}, "high fat-fed mice [2]": {"tested_on": "high fat-fed mice", "test": "Intraperitoneal artemether, adipose tissue in high fat-fed mice", "type": "in vivo, Male C57BL/6J mice", "conditions": "high-fat diet, intraperitoneal 20 mg/kg twice a week, eight weeks", "procedure": "The mice were breeded in the SPF animal laboratory of the Laboratory Animal Center of Fudan University at a room temperature of 21° C.-23° C. with a 12-hour light/dark cycle. […] When the mice were grown to 8-week old, they were randomly divided into a control group and an administration group, with 8 mice in each group. While the mice were fed with a high-fat diet, artemether was injected intraperitoneally. Artemether for intraperitoneal injection was stored at 4° C. in coconut oil at a storage concentration of 6 mg/ml (20 mMol/L), and protected from light. Mice in administration group were injected with artemether at a dose of 20 mg/kg weight. Administration was twice a week for eight weeks. The mice were sacrificed by cervical dislocation and were dissected, and inguinal fat (Inguinal, subcutaneous fat), epididymal fat (Gonadal, visceral fat) and brown fat in the interscapular region (BAT, classic brown fat) were removed, weighed and fixed. The histological analysis of adipose tissue was commissioned by Shanghai Saige Biotech Co., Ltd., which included the steps of fixing, paraffin embedding, sectioning and HE staining."}, "high fat-fed mice [3]": {"tested_on": "high fat-fed mice", "test": "Intraperitoneal artemether, serum lipid indicators in high-fat diet mice", "type": "in vivo, Male C57BL/6J mice", "conditions": "intraperitoneal 20 mg/kg twice a week, eight weeks", "procedure": "The mice were breeded in the SPF animal laboratory of the Laboratory Animal Center of Fudan University at a room temperature of 21° C.-23° C. with a 12-hour light/dark cycle. […] When the mice were grown to 8-week old, they were randomly divided into a control group and an administration group, with 8 mice in each group. While the mice were fed with a high-fat diet, artemether was injected intraperitoneally. Artemether for intraperitoneal injection was stored at 4° C. in coconut oil at a storage concentration of 6 mg/ml (20 mMol/L), and protected from light. Mice in administration group were injected with artemether at a dose of 20 mg/kg weight. Administration was twice a week for eight weeks.\nThe mice were anesthetized with 10% chloral hydrate and blood was taken from the orbit. The whole blood was centrifuged at 300 rpm for 5 min at 4° C.\nSerum was taken and the serum indicators were measured by lipid calibrator Cfas Lipid, high-density lipoprotein Cfas, and low density lipoprotein Cfas, as well as detection kits for related indicators."}, "[4]": {"conditions": "SVF, artemether 5, 10, 15 Mol/L, Western Blot"}}}
{"smiles": "CO[C@H]1O[C@@H]2O[C@@]3(C)CC[C@H]4[C@H](C)CC[C@@H]([C@H]1C)[C@@]24OO3", "note": "[artemether]", "values": [{"measurement": "expression level of PGC1α", "setting": "SVF primary preadipocyte; [4]", "value": "gradually increase with the increase of artemether concentration"}, {"measurement": "expression level of PRDM16", "setting": "SVF primary preadipocyte; [4]", "value": "gradually increase with the increase of artemether concentration"}, {"measurement": "expression level of UCP1", "setting": "SVF primary preadipocyte; [4]", "value": "gradually increase with the increase of artemether concentration"}, {"measurement": "cell morphology of SVF primary preadipocyte", "setting": "SVF primary preadipocyte; artemether 5, 10, 15 Mol/L during differentiation, vs standard differentiated control cells, concentration-dependent tendency", "value": "smaller in size, with characteristics of multi-cavity small lipid droplets"}, {"measurement": "adipocyte size (sectioning and HE staining)", "setting": "high fat-fed mice [1]", "value": "significantly smaller than that of mice in control group"}, {"measurement": "volume of adipose tissue (inguinal fat, epididymal fat and brown fat)", "setting": "high fat-fed mice [1]", "value": "significantly smaller than that of mice in control group"}, {"measurement": "weight of adipose tissue (inguinal fat, epididymal fat and brown fat)", "setting": "high fat-fed mice [1]", "value": "significantly smaller than that of mice in control group"}, {"measurement": "adipocyte size (sectioning and HE staining)", "setting": "high fat-fed mice [2]", "value": "significantly smaller than that of mice in control group"}, {"measurement": "volume of adipose tissue", "setting": "high fat-fed mice [2]", "value": "significantly smaller than that of mice in control group"}, {"measurement": "weight of adipose tissue", "setting": "high fat-fed mice [2]", "value": "significantly smaller than that of mice in control group"}, {"measurement": "Serum cholesterol", "setting": "high fat-fed mice [3]", "value": "significantly decreased"}, {"measurement": "high-density lipoprotein (HDL) in the serum", "setting": "high fat-fed mice [3]", "value": "not different from the control group"}, {"measurement": "serum low density lipoprotein (LDL)", "setting": "high fat-fed mice [3]", "value": "significantly decreased"}, {"measurement": "triglyceride in the serum", "setting": "high fat-fed mice [3]", "value": "not different from the control group"}]}
